Where “and” joins values, the source holds several entries; their conditions need not be identical. Identical values can stand only once.
Tested on: 786-0 complex spheroids with HUVEC/MSC, growth % test/control
Experiment: Anticancer human tumor 786-0 cell line growth inhibition [AhR];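 further: compound exposure lasted seven days before the read-out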
Details: for viability, T/C: stronger effect = lower value; active means viability on the fitted dose curve at most 10% of control; inactive means the rest
Method in brief: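 Spheroids combined tumor cells with HUVEC endothelial cells and human MSCs as stroma. AhR antagonists were paired with standard or investigational drugs, each dosed in half-log steps down from near clinical Cmax, or from 10 microM where Cmax was unknown.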

[1] = curve of first compound, second compound 0.1 µM
[2] = curve of first compound, second compound 0.316 µM
[3] = curve of first compound, second compound 1 µM
[4] = curve of first compound, second compound 3.16 µM
[5] = curve of first compound, second compound 10 µM
[6] = second compound 0.1 µM, first compound 0.0316 µM
[7] = second compound 0.1 µM, first compound 0.1 µM
[8] = second compound 0.1 µM, first compound 0.316 µM
[9] = second compound 0.1 µM, first compound 1 µM
[10] = second compound 0.1 µM, first compound 3.16 µM
[11] = second compound 0.1 µM, first compound 10 µM
[12] = second compound 0.316 µM, first compound 0.0316 µM
[13] = second compound 0.316 µM, first compound 0.1 µM
[14] = second compound 0.316 µM, first compound 0.316 µM
[15] = second compound 0.316 µM, first compound 1 µM
[16] = second compound 0.316 µM, first compound 3.16 µM
[17] = second compound 0.316 µM, first compound 10 µM
[18] = second compound 1 µM, first compound 0.0316 µM
[19] = second compound 1 µM, first compound 0.1 µM
[20] = second compound 1 µM, first compound 0.316 µM
[21] = second compound 1 µM, first compound 1 µM
[22] = second compound 1 µM, first compound 3.16 µM
[23] = second compound 1 µM, first compound 10 µM
[24] = second compound 3.16 µM, first compound 0.0316 µM
[25] = second compound 3.16 µM, first compound 0.1 µM
[26] = second compound 3.16 µM, first compound 0.316 µM
[27] = second compound 3.16 µM, first compound 1 µM
[28] = second compound 3.16 µM, first compound 3.16 µM
[29] = second compound 3.16 µM, first compound 10 µM
[30] = second compound 10 µM, first compound 0.0316 µM
[31] = second compound 10 µM, first compound 0.1 µM
[32] = second compound 10 µM, first compound 0.316 µM
[33] = second compound 10 µM, first compound 1 µM
[34] = second compound 10 µM, first compound 3.16 µM
[35] = second compound 10 µM, first compound 10 µM

COc1cccc2c1C(=O)c1c(O)c3c(c(O)c1C2=O)CC(O)(C(=O)CO)CC3OC1CC(N)C(O)C(C)O1 (configuration not stated) + Cc1ccccc1N=Nc1ccc(NC(=O)c2ccnn2C)c(C)c1
76.5 nM: IC50 [5]
132 nM: IC50 [3]
119 nM: IC50 [4]
active: viability, T/C [9] 9.36% | viability, T/C [10] 1.43% | viability, T/C [11] 1.74% | viability, T/C [15] 10.1% | viability, T/C [16] 2.44% | viability, T/C [17] 3.3% | viability, T/C [21] 9.75% | viability, T/C [22] 1.55% | viability, T/C [23] 1.78% | viability, T/C [27] 9.36% | viability, T/C [28] 1.41% | viability, T/C [29] 1.09% | viability, T/C [33] 9.51% | viability, T/C [34] 1.98% | viability, T/C [35] 1.15%
126 nM: IC50 [1]
inactive: viability, T/C [6] 73.8% | viability, T/C [7] 56.6% | viability, T/C [8] 24.7% | viability, T/C [12] 69.3% | viability, T/C [13] 55.7% | viability, T/C [14] 24.7% | viability, T/C [18] 77.4% | viability, T/C [19] 57.4% | viability, T/C [20] 26.7% | viability, T/C [24] 66.6% | viability, T/C [25] 55.2% | viability, T/C [26] 24.5% | viability, T/C [30] 57.6% | viability, T/C [31] 48.8% | viability, T/C [32] 22.4%
122 nM: IC50 [2]

COc1cc(Nc2ncc3c(n2)-c2ccc(Cl)cc2C(c2c(F)cccc2OC)=NC3)ccc1C(=O)O + Cc1ccccc1N=Nc1ccc(NC(=O)c2ccnn2C)c(C)c1
inactive: viability, T/C [6] 98.7% | viability, T/C [7] 109% | viability, T/C [8] 117% | viability, T/C [9] 84.7% | viability, T/C [10] 58.3% | viability, T/C [11] 30.1% | viability, T/C [12] 107% | viability, T/C [13] 107% | viability, T/C [14] 133% | viability, T/C [15] 91.6% | viability, T/C [16] 55.1% | viability, T/C [17] 28.7% | viability, T/C [18] 108% | viability, T/C [19] 109% | viability, T/C [20] 121% | viability, T/C [21] 89.2% | viability, T/C [22] 55.5% | viability, T/C [23] 30.2% | viability, T/C [24] 95.8% | viability, T/C [25] 98.4% | viability, T/C [26] 103% | viability, T/C [27] 82.3% | viability, T/C [28] 63.2% | viability, T/C [29] 29.2% | viability, T/C [30] 83.3% | viability, T/C [31] 85.3% | viability, T/C [32] 106% | viability, T/C [33] 91.8% | viability, T/C [34] 60.2% | viability, T/C [35] 38.2%
5410 nM: IC50 [5]
3780 nM: IC50 [3]
3610 nM: IC50 [2]
4820 nM: IC50 [4]
4130 nM: IC50 [1]

CC(C)CC(NC(=O)C(Cc1ccccc1)NC(=O)c1cnccn1)B(O)O (configuration not stated) + CC(CO)NC(=O)c1cc(-c2ccc(Cl)cc2)nn(-c2cnn(C)c2)c1=O
active: viability, T/C (second compound 0.1 µM, first compound 0.03 µM) 0.34% | viability, T/C (second compound 0.1 µM, first compound 0.0949 µM) 0.27% | viability, T/C (second compound 0.1 µM, first compound 0.3 µM) 0.18% | viability, T/C (second compound 0.316 µM, first compound 0.03 µM) 0.39% | viability, T/C (second compound 0.316 µM, first compound 0.0949 µM) 0.19% | viability, T/C (second compound 0.316 µM, first compound 0.3 µM) 0.19% | viability, T/C (second compound 1 µM, first compound 0.03 µM) 0.56% | viability, T/C (second compound 1 µM, first compound 0.0949 µM) 0.17% | viability, T/C (second compound 1 µM, first compound 0.3 µM) 0.33% | viability, T/C (second compound 3.16 µM, first compound 0.03 µM) 1.26% | viability, T/C (second compound 3.16 µM, first compound 0.0949 µM) 0.23% | viability, T/C (second compound 3.16 µM, first compound 0.3 µM) 0.25% | viability, T/C (second compound 10 µM, first compound 0.03 µM) 1.88% | viability, T/C (second compound 10 µM, first compound 0.0949 µM) 0.9% | viability, T/C (second compound 10 µM, first compound 0.3 µM) 0.37%
8.36 nM: IC50 [2]
7.71 nM: IC50 [1]
8.49 nM: IC50 [3]
inactive: viability, T/C (second compound 0.1 µM, first compound 0.000949 µM) 108% | viability, T/C (second compound 0.1 µM, first compound 0.003 µM) 103% | viability, T/C (second compound 0.1 µM, first compound 0.00949 µM) 38.4% | viability, T/C (second compound 0.316 µM, first compound 0.000949 µM) 114% | viability, T/C (second compound 0.316 µM, first compound 0.003 µM) 117% | viability, T/C (second compound 0.316 µM, first compound 0.00949 µM) 41.9% | viability, T/C (second compound 1 µM, first compound 0.000949 µM) 112% | viability, T/C (second compound 1 µM, first compound 0.003 µM) 112% | viability, T/C (second compound 1 µM, first compound 0.00949 µM) 43.3% | viability, T/C (second compound 3.16 µM, first compound 0.000949 µM) 117% | viability, T/C (second compound 3.16 µM, first compound 0.003 µM) 118% | viability, T/C (second compound 3.16 µM, first compound 0.00949 µM) 37.6% | viability, T/C (second compound 10 µM, first compound 0.000949 µM) 120% | viability, T/C (second compound 10 µM, first compound 0.003 µM) 127% | viability, T/C (second compound 10 µM, first compound 0.00949 µM) 35.9%
7.94 nM: IC50 [4]
7.88 nM: IC50 [5]

Nc1ncn(C2CC(O)C(CO)O2)c(=O)n1 (configuration not stated) + CC(CO)NC(=O)c1cc(-c2ccc(Cl)cc2)nn(-c2cnn(C)c2)c1=O
inactive: viability, T/C (second compound 0.1 µM, first compound 0.00316 µM) 96.2% | viability, T/C (second compound 0.1 µM, first compound 0.01 µM) 79.7% | viability, T/C [6] 72.4% | viability, T/C [7] 75.3% | viability, T/C [8] 75.3% | viability, T/C [9] 62% | viability, T/C (second compound 0.316 µM, first compound 0.00316 µM) 69% | viability, T/C (second compound 0.316 µM, first compound 0.01 µM) 66% | viability, T/C [12] 75.3% | viability, T/C [13] 62.1% | viability, T/C [14] 57.9% | viability, T/C [15] 55% | viability, T/C (second compound 1 µM, first compound 0.00316 µM) 82.4% | viability, T/C (second compound 1 µM, first compound 0.01 µM) 109% | viability, T/C [18] 88.6% | viability, T/C [19] 72.1% | viability, T/C [20] 65.3% | viability, T/C [21] 61% | viability, T/C (second compound 3.16 µM, first compound 0.00316 µM) 108% | viability, T/C (second compound 3.16 µM, first compound 0.01 µM) 94.1% | viability, T/C [24] 93.8% | viability, T/C [25] 91.2% | viability, T/C [26] 77.7% | viability, T/C [27] 64.3% | viability, T/C (second compound 10 µM, first compound 0.00316 µM) 116% | viability, T/C (second compound 10 µM, first compound 0.01 µM) 121% | viability, T/C [30] 122% | viability, T/C [31] 117% | viability, T/C [32] 109% | viability, T/C [33] 73.1%
> 1000 nM: IC50 [1] | IC50 [2] | IC50 [3] | IC50 [4] | IC50 [5]

CC1COCCN1c1cc(-c2ccnn2C)c2ccnc(-c3ccn[nH]3)c2n1 (configuration not stated)
active: viability, T/C (compound 1 µM) 4.64% and 9.13% and 3.92%
inactive: viability, T/C (compound 0.00316 µM) 104% and 102% and 103% | viability, T/C (compound 0.01 µM) 103% and 104% and 94.9% | viability, T/C (compound 0.0316 µM) 101% and 104% and 88.6% | viability, T/C (compound 0.1 µM) 56.4% and 92% and 57.7% | viability, T/C (compound 0.316 µM) 16.5% and 26.5% and 11.5%
123 nM and 209 nM and 118 nM: IC50 (curve of compound)

COc1cc(Nc2ncc3c(n2)-c2ccc(Cl)cc2C(c2c(F)cccc2OC)=NC3)ccc1C(=O)O + CC(CO)NC(=O)c1cc(-c2ccc(Cl)cc2)nn(-c2cnn(C)c2)c1=O
2600 nM: IC50 [2]
2820 nM: IC50 [5]
2540 nM: IC50 [4]
inactive: viability, T/C [6] 101% | viability, T/C [7] 96.8% | viability, T/C [8] 99.9% | viability, T/C [9] 82% | viability, T/C [10] 46.4% | viability, T/C [11] 23.9% | viability, T/C [12] 106% | viability, T/C [13] 100% | viability, T/C [14] 107% | viability, T/C [15] 84.7% | viability, T/C [16] 43.2% | viability, T/C [17] 19.8% | viability, T/C [18] 96.8% | viability, T/C [19] 103% | viability, T/C [20] 108% | viability, T/C [21] 80.2% | viability, T/C [22] 44% | viability, T/C [23] 20.3% | viability, T/C [24] 107% | viability, T/C [25] 93.2% | viability, T/C [26] 104% | viability, T/C [27] 87.9% | viability, T/C [28] 41.1% | viability, T/C [29] 19.9% | viability, T/C [30] 92.3% | viability, T/C [31] 86.7% | viability, T/C [32] 101% | viability, T/C [33] 85% | viability, T/C [34] 46.2% | viability, T/C [35] 19.5%
2550 nM: IC50 [3]
2790 nM: IC50 [1]

Reference: PubChem BioAssay AID1919003 (Molecular Pharmacology Branch, DTP, NCI, 2023)
